US20220389049A1, “REVERSIBLE TERMINATORS FOR DNA SEQUENCING AND METHODS OF USING THE SAME” (Centrillion Technologies, Inc., priority 2019, published 2022)

Legend:
DNA polymerase ("CENT1") = experiment: Enzymatic incorporation and cleavage studies: primer extension with compound 5 into a growing DNA chain (FIG. 2); format: biochemical
Text: Enzymatic Incorporation and Cleavage Studies: (2R,3S,5R)-2-(((hydroxy((hydroxy(phosphonooxy)phosphoryl)oxy)phosphoryl)oxy)methyl)-5-(5-methyl-2,4-dioxo-3,4-dihydropyrimidin-1(2H)-yl)tetrahydrofuran-3-yl 3-azidopropanoate (5), a model compound, was synthesized similar to conditions of the relevant reactions disclosed in Scheme 1.

[1] = Chemical cleavage of the 3′O-blocking group of the free triphosphate by reducing reagent; format: physicochemical; conditions: heating with THPP or TCEP in 1×TE buffer at 55° C. for 5 min
Method: Cleavage of 3′O-[dithio-1-butynyl)-methyl)-thymidine triphosphate (15): The 3′O-bolcking group, alkyne dithioalkynemethyl ether from triphosphate 15 was cleaved by heating with 1, 4-dithiothreitol or (DTT) or tris(2-carboxyethyl) phosphine (TCEP) in 1×TE buffer (pH 9.5) at 55 degree Celsius for 5 min to afford thymidine triphosphate as shown in the Scheme 5.

growing DNA chain = experiment: Enzymatic incorporation: primer extension with compound 15 into a growing DNA chain (FIG. 3); format: biochemical; conditions: FIG. 3 lanes 3, 4, 6 and 7

blockage of further extension after incorporation of the terminator (DNA polymerase ("CENT1"); "runaway" reaction in the presence of all four unmodified dNTPs and a polymerase, FIG. 2 lane 4)	further extension by the next base added after the cleavage (DNA polymerase ("CENT1"); FIG. 2 lane 6)	enzymatic incorporation (DNA polymerase ("CENT1"); in the presence of DNA polymerase ("CENT1"), FIG. 2 lane 3)	cleavage of the 3′O-azidoalkanoate [1]	SMILES	cleavage of the label and the blocking group after incorporation (DNA polymerase ("CENT1"); FIG. 2 lane 5)	enzymatic incorporation (growing DNA chain)
blockage of further extension	further extension by the next base added	can be used in enzymatic incorporation	neatly cleaved	Cc1cn([C@H]2C[C@@H](OC(=O)CCN=[N+]=[N-])[C@@H](COP(=O)(O)OP(=O)(O)OP(=O)(O)O)O2)c(=O)[nH]c1=O [compound 5, 3′O-(3-azidopropionyl)-thymidine triphosphate]	cleavage of the label and the blocking group	–
–	–	–	–	C#CCCCSSCO[C@@H]1C[C@H](n2cc(C)c(=O)[nH]c2=O)O[C@@H]1COP(=O)(O)OP(=O)(O)OP(=O)(O)O [compound 15]	–	excellent enzymatic incorporation
